Data: US20120178796A1, “SPLICE VARIANTS” (priority 2009, published 2012)

Legend:
Assay type in all cases: cell-based, human
[1] = test system: ARPE19 retinal epithelial cells; test: Morphological neuronal differentiation of ARPE19 cells (phase contrast micrographs); details: for morphological differentiation towards neuronal phenotype after siRNA silencing: 72 h to 96 hr after siRNA
Experimental: (§1) Isogenic colorectal carcinoma cell lines HCT116 p53+/+ and HCT116 p53-/- were cultured in DMEM supplemented with 10% FBS. Non-cancer retinal epithelial cell line ARPE-19 was cultured in DMEM:F12 supplemented with 10% FBS. Cells used in experiments were low passage number (not >8 splits from nitrogen). Transfection of siRNA were as described (Ford et al., 2005; Ford et al., 2008). SIRT1 FL siRNA (targeting SIRT1 FL and SIRT1 ΔEx3-4) is sited within exon8; SIRT1 ΔEx8 siRNA (targeting SIRT1 ΔEx8 and SIRT1 ΔEx3-4-8) is located across the alternate exon7-exon9 splice. Sequences and locations of siRNAs are detailed in the Supplementary Table 3.
(§2) Digital phase contrast cell images were captured on an Axiovert Cell Observer (Zeiss). Quantification of apoptosis was performed using an AnnexinV-Fluos kit (Roche) according to the manufacturer's instructions, with analysis by flow cytometry on a FACSCalibur (BD) using CellQuest software.
Cells were treated for 48 h with 1 μM fenretinide in OPTIMEM media 24 h following siRNA transfection. Before addition of fenretinide cells were first washed with OPTIMEM to remove serum. 48 h later fenretinide was removed by washing with OPTIMEM and normal growth media with serum was added. Cells were then monitored by microscopy for a further 48 h.

p53 [2] = test: Immunoblot of p53 protein and p53 acetylation after siRNA silencing, HCT116 cells
Experimental: as §1

SIRT1 Δ2-9 mRNA = SIRT1 Δ2-9 mRNA knock-down by RT-PCR in ARPE19 and HCT116 cells
Experimental: as §1
Standard RT-PCR was performed on a DNA Engine Dyad (MJ Research) using a One-Step RT-PCR kit (Qiagen). Reaction endpoints were electrophoresed on agarose gels, visualised on a UV transilluminator (Appligene) and images captured with a DS34 camera (Polaroid). […] Total RNA from cell experiments was isolated using an RNeasy kit (Qiagen) and quantitated by UV spectroscopy (GeneSpecV). For qRT-PCR, reactions were run in quadruplicate on a DNA Engine Opticon (BioRad) using a QuantiTect SYBR Green RT-PCR kit (Qiagen). […]
In order to look at the functional significance of SIRT1 Δ2-9, a siRNA was designed to the splice junction region of exon-2 and exon-9. […] These changes were also confirmed by quantitative RT-PCR (FIG. 20E). […]

p53 [3] = test: Immunoblot of p53 protein and p53 acetylation after siRNA silencing or stress, ARPE19 cells; details: for p53 induction in response to DNA damaging agent: agent alone
Experimental: as §1

[4] = test system: HCT116 colorectal cancer cells; test: Apoptosis after siRNA silencing (micrographs, annexin V staining), HCT116 cells; details: single dose of siRNA, basal conditions
Experimental: as §1, §2

[5] = test system: ARPE19 non-cancer epithelial cells; test: Apoptosis after siRNA silencing, ARPE19 cells
Experimental: as §1, §2

Row | Molecule | accumulation of total p53 protein (p53 [2]; HCT116 cells, basal conditions) | induction of apoptosis [4] | morphological differentiation towards neuronal phenotype after siRNA silencing [1] | p53 induction in response to DNA damaging agent (p53 [3]) | also measured
1 | CC1=C(/C=C/C(C)=C/C=C/C(C)=C/C(=O)Nc2ccc(O)cc2)C(C)(C)CCC1 [fenretinide, reference compound] | – | – | – | – | neuronal differentiation induced by compound ([1]; 1 μM, 48 h, OPTIMEM): can be induced
2 | CCUUCUGUUCGUUCUUGUG [SIRT1 Δ2-9 siRNA] | – | – | – | – | p53 protein level (Western blot) (p53 [2]; HCT116 p53+/+ cells): significantly reduced; SIRT1 Δ2-9 mRNA expression (SIRT1 Δ2-9 mRNA): almost completely abolished; p53 protein level (Western blot) (p53 [3]): significantly reduced; stress-induced p53 induction in siRNA treated samples (p53 [3]; Etoposide, UV or 5FU in combination with siRNA): attenuated
3 | UAAUUCCAAGUAAUCAGUA [SIRT1 ΔEx8 siRNA] | A similar effect was not observed | did not induce apoptosis | did not induce morphological differentiation | – | –
4 | COc1cc([C@@H]2c3cc4c(cc3[C@@H](O[C@@H]3O[C@@H]5CO[C@@H](C)O[C@H]5[C@H](O)[C@H]3O)[C@H]3COC(=O)[C@H]23)OCO4)cc(OC)c1O [Etoposide, reference compound] | – | – | – | induced substantially | –
5 | ACUUUGCUGUAACCCUGUA [SIRT1 FL siRNA] | approximately 10 fold | induced massive apoptosis | induces neuronal differentiation | – | increase of p53 acetylation levels (p53 [2]; HCT116 cells, basal conditions): more than 50 fold; induction of apoptosis [5]: fails to induce apoptosis
6 | O=c1[nH]cc(F)c(=O)[nH]1 [SFU, reference compound] | – | – | – | induced substantially | –
